Source: patent US9273058B2 (BRISTOL-MYERS SQUIBB COMPANY, priority 2013, dated 2016)
Where two headings read alike, the source gives them in different places.

Columns and labels:
CK1ε = CK1ε (Homo sapiens, UniProt P49674); test: CK1ε kinase assay (Caliper LabChip electrophoretic separation of fluoresceinated peptide substrate and product); type: biochemical; conditions: 200 pM CK1ε, 50 μM ATP, 1.5 μM peptide, 22 hours at room temperature
Method in brief: (§1)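 Kinase reactions ran 22 h at room temperature, were stopped with EDTA, and phosphorylated product was separated electrophoretically from unphosphorylated fluoresceinated peptide. Compounds were tested at eleven concentrations from 10 mM DMSO stocks. IC50 by non-linear regression.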

CK1δ = CK1δ (Homo sapiens, UniProt P48730); test: CK1δ kinase assay (Caliper LabChip electrophoretic separation of fluoresceinated peptide substrate and product); type: biochemical; conditions: 200 pM CK1δ, 50 μM ATP, 1.5 μM peptide, 22 hours at room temperature
Method in brief: as §1

Sequence of CK1ε (P49674 whole entry): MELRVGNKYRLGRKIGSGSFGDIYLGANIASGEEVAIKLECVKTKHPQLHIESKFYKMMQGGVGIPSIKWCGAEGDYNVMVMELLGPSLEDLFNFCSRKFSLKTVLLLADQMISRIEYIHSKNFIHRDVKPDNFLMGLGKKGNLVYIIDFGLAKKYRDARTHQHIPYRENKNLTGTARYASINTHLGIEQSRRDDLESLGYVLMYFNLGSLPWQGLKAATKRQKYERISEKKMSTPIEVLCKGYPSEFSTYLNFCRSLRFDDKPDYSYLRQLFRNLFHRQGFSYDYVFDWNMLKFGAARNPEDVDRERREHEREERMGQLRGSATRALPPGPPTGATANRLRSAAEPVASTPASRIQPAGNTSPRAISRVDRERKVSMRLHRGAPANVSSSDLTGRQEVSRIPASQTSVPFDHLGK
Sequence of CK1δ (P48730 whole entry): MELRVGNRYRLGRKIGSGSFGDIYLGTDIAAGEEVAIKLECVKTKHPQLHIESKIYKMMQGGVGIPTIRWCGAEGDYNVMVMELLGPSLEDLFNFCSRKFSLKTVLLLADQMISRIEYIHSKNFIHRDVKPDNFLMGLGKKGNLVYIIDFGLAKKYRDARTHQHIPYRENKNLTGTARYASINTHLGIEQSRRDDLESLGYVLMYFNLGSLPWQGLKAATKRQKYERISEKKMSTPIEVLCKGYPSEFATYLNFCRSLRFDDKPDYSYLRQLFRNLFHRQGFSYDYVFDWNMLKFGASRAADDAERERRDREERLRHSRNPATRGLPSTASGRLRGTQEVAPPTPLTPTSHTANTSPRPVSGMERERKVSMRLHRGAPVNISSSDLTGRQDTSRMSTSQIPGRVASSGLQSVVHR

Compound	IC50 (CK1ε; read-out: CK1ε IC50 range) [nM]	IC50 (CK1δ; read-out: CK1δ IC50 range) [nM]	IC50 (CK1ε; read-out: CK1ε) [nM]	IC50 (CK1δ; read-out: CK1δ) [nM]
CC(C)(C)NC(=O)N1CCn2nc(-c3cnc(N4CCCC4)nc3)c(C(N)=O)c2C1 [Compound 146, N^5-(tert-Butyl)-2-(2-(pyrrolidin-1-yl)pyrimidin-5-yl)-6,7-dihydropyrazolo[1,5-a]pyrazine-3,5(4H)-dicarboxamide]	100 to 2000	100 to 2000		
CC(C)(C)NC(=O)N1CCn2nc(-c3cccc4cnccc34)c(C(N)=O)c2C1 [Compound 134, N^5-(tert-Butyl)-2-(isoquinolin-5-yl)-6,7-dihydropyrazolo[1,5-a] pyrazine-3,5(4H)-dicarboxamide]	100 to 2000	100 to 2000		
NC(=O)c1c(-c2cccc(Cl)c2)nn2c1CN(C(=O)N[C@H]1C[C@@H]3[C@H](C1)C3(F)F)CC2 [Compound 184, 2-(3-Chlorophenyl)-N^5-((1R,3r,5S)-6,6-difluorobicyclo[3.1.0]hexan-3-yl)-6,7-dihydropyrazolo[1,5-a]pyrazine-3,5(4H)-dicarboxamide]	0.01 to 10	0.01 to 10		
NC(=O)c1c(-c2cccc(Cl)c2)nn2c1CN(C(=O)N[C@H]1C[C@H](F)C1)CC2 [Compound 175, 2-(3-Chlorophenyl)-N^5-((1r,3r)-3-fluorocyclobutyl)-6,7-dihydropyrazolo[1,5-a] pyrazine-3,5(4H)-dicarboxamide]	0.01 to 10	0.01 to 10		
NC(=O)c1c(-c2cccc(Cl)c2)nn2c1CN(C(=O)Nc1ccc(C(F)(F)F)cc1)CC2 [Compound 168, 2-(3-Chlorophenyl)-N^5-(4-(trifluoromethyl)phenyl)-6,7-dihydropyrazolo[1,5-a]pyrazine-3,5(4H)-dicarboxamide]	0.01 to 10	0.01 to 10		
CC1Cn2nc(-c3ccc(F)c(Cl)c3)c(C(N)=O)c2CN1C(=O)NC1CC(F)(F)C1 (single isomer, unassigned) [Compound 342, 2-(3-Chloro-4-fluorophenyl)-N^5-(3,3-difluorocyclobutyl)-6-methyl-6,7-dihydropyrazolo[1,5-a]pyrazine-3,5(4H)-dicarboxamide]	10 to 100	10 to 100		
CC(C)NC(=O)C(C)(C)NC(=O)N1CCn2nc(-c3ccc(F)c(Cl)c3)c(C(N)=O)c2C1 [Compound 216, 2-(3-Chloro-4-fluorophenyl)-N^5-(1-(isopropylamino)-2-methyl-1-oxopropan-2-yl)-6,7-dihydropyrazolo[1,5-a] pyrazine-3,5(4H)-dicarboxamide]	100 to 2000	10 to 100		
CC(C)(C)NC(=O)N1CCn2nc(-c3ccc4scnc4c3)c(C(N)=O)c2C1 [Compound 149, 2-(Benzo[d]thiazol-5-yl)-N^5-(tert-butyl)-6,7-dihydropyrazolo[1,5-a] pyrazine-3,5(4H)-dicarboxamide]	100 to 2000	10 to 100		
CC(C)C1CN(C(=O)NC(C)(C)C)Cc2c(C(N)=O)c(-c3ccc(F)c(Cl)c3)nn21 (single isomer, unassigned) [Compound A119, N^5-(tert-Butyl)-2-(3-chloro-4-fluorophenyl)-7-isopropyl-6,7-dihydropyrazolo[1,5-a]pyrazine-3,5(4H)-dicarboxamide]	10 to 100	10 to 100		
CC(C)(C)NC(=O)N1Cc2c(C(N)=O)c(-c3ccc(F)c(Cl)c3)nn2C(C(C)(C)C)C1 (single isomer, unassigned) [Compound A117, N^5-7-Di-tert-butyl-2-(3-chloro-4-fluorophenyl)-6,7-dihydropyrazolo[1,5-a]pyrazine-3,5(4H)-dicarboxamide]	10 to 100	100 to 2000		
N#Cc1ccc(C2(NC(=O)N3CCn4nc(-c5ccc(F)c(Cl)c5)c(C(N)=O)c4C3)CC(F)(F)C2)cc1 [Compound 314, 2-(3-Chloro-4-fluorophenyl)-N^5-(1-(4-cyanophenyl)-3,3-difluorocyclobutyl)-6,7-dihydropyrazolo[1,5-a]pyrazine-3,5(4H)-dicarboxamide]	0.01 to 10	0.01 to 10		
COc1cc(NC(=O)N2CCn3nc(-c4cccc(F)c4)c(C(N)=O)c3C2)ncn1 [Compound 75, 2-(3-Fluorophenyl)-N^5-(6-methoxypyrimidin-4-yl)-6,7-dihydropyrazolo[1,5-a]pyrazine-3,5(4H)-dicarboxamide]	10 to 100	10 to 100		
CC(C)(C)NC(=O)N1CCn2nc(-c3ccc(F)c(Cl)c3)c(C(N)=O)c2C1 [Compound 104]	0.01 to 10	0.01 to 10	1.3	0.7
NC(=O)c1c(-c2cccc(F)c2)nn2c1CN(C(=O)NCCC(F)(F)F)CC2 [Compound 14, 2-(3-Fluorophenyl)-N^5-(3,3,3-trifluoropropyl)-6,7-dihydropyrazolo[1,5-a]pyrazine-3,5(4H)-dicarboxamide]	10 to 100	10 to 100		
NC(=O)c1c(-c2ccc(Cl)c(Cl)c2)nn2c1CN(C(=O)N[C@H]1C[C@@H](OC(F)(F)F)C1)CC2 [Compound 263, 2-(3,4-Dichlorophenyl)-N^5-((1r,3r)-3-(trifluoromethoxy)cyclobutyl)-6,7-dihydropyrazolo[1,5-a] pyrazine-3,5(4H)-dicarboxamide]	0.01 to 10	0.01 to 10		
NC(=O)c1c(-c2cccc(F)c2)nn2c1CN(C(=O)NCC(F)(F)F)CC2 [Compound 15, 2-(3-Fluorophenyl)-N^5-(2,2,2-trifluoroethyl)-6,7-dihydropyrazolo[1,5-a]pyrazine-3,5(4H)-dicarboxamide]	100 to 2000	10 to 100		
CC(C)(C)NC(=O)N1Cc2c(C(N)=O)c(-c3ccc(F)c(Cl)c3)nn2[C@H]2COC[C@H]21 [Compound 352, (5aS,8aR)—N^5-(tert-Butyl)-2-(3-chloro-4-fluorophenyl)-5a,6,8,8a-tetrahydrofuro[3,4-e]pyrazolo[1,5-a]pyrazine-3,5(4H)-dicarboxamide]	10 to 100	10 to 100	19.8	18.1
N#CC1(NC(=O)N2CCn3nc(-c4ccc(F)c(Cl)c4)c(C(N)=O)c3C2)CCOC1 (stereo not shown) [Compound 334, 2-(3-Chloro-4-fluorophenyl)-N^5-(3-cyanotetrahydrofuran-3-yl)-6,7-dihydropyrazolo[1,5-a]pyrazine-3,5(4H)-dicarboxamide]	0.01 to 10	0.01 to 10		
NC(=O)c1c(-c2cccc(Cl)c2)nn2c1CN(C(=O)N[C@H]1C[C@@H](c3ccc(F)cc3)C1)CC2 [Compound 277, 2-(3-Chlorophenyl)-N^5-((1s,3s)-3-(4-fluorophenyl)cyclobutyl)-6,7-dihydropyrazolo[1,5-a] pyrazine-3,5(4H)-dicarboxamide]	0.01 to 10	0.01 to 10		
COCCC1CN(C(=O)NC(C)(C)C)Cc2c(C(N)=O)c(-c3ccc(F)c(Cl)c3)nn21 (single isomer, unassigned) [Compound A101, N^5-(tert-Butyl)-2-(3-chloro-4-fluorophenyl)-7-(2-methoxyethyl)-6,7-dihydropyrazolo[1,5-a]pyrazine-3,5(4H)-dicarboxamide]	0.01 to 10	0.01 to 10		
CC1(NC(=O)N2Cc3c(C(N)=O)c(-c4ccc(F)c(Cl)c4)nn3CC2C2CC2)CC(F)(F)C1 (single isomer, unassigned) [Compound 348, 2-(3-Chloro-4-fluorophenyl)-6-cyclopropyl-N^5-(3,3-difluoro-1-methylcyclobutyl)-6,7-dihydropyrazolo[1,5-a]pyrazine-3,5(4H)-dicarboxamide]	10 to 100	100 to 2000		
